Like-named read-outs stand apart in the source and are kept apart here.
Legend:
[1] = target: α4β2-nAChR agonist binding sites (Homo sapiens, UniProt P17787+P43681); experiment: 3H-epibatidine radioligand binding assay
[2] = system: extracellular dopamine levels in the nucleus accumbens; experiment: microdialysis of extracellular dopamine in nucleus accumbens of acute nicotine-administered rats; format: in vivo, rat
Source text: Finally, the effects of IPT on the extracellular dopamine levels in the nucleus accumbens of acute nicotine-administered rats are illustrated by microdialysis.

[3] = target: T1, human α4β2-nAChR (Homo sapiens, UniProt P17787+P43681); experiment: whole-cell voltage-clamp currents of heterologously expressed human α4β2-nAChR in SH-EP1 cells; format: cell-based; details: for reduction of peak current amplitude after initial co-application of nicotine with IPT / peak amplitude of 3 μM nicotine-induced current, % of control / response to nicotine challenge after 15 min of IPT exposure, % of control: 3 μM IPT; for reduction of peak current amplitude after initial co-application of nicotine with IPT: 0 min
T1 construct: expressed in transfected cells; host or cells: SH-EP1 human epithelial cell line (SH-EP1-hα4β2)
Source text: Heterologously expressed, human α4β2-nAChRs in cloned human epithelia cell (SH-EP1 cell line) were employed as a cellular model to test IPT's pharmacology. IPT acts as a potent and selective antagonist of α4-containing nAChR. IPT inhibits both peak and steady-state whole-cell current responses to nicotinic agonists and accelerates acute desensitization in a concentration-dependent manner while having long-lasting effects after washout. Its effects are enhanced by exposure to nAChR prior to agonist challenge.
The whole-cell traces of nicotinic responses with and without IPT are superimposed in the right traces. For these and all subsequent traces, current amplitude and time calibration bars are indicated, the holding potential (vH) was −60 mV unless indicated otherwise, and the duration of ligand exposure is indicated by the bars above the trace.
In this and all following figures, unless specifically mentioned, each column (or symbol) is the average from 4-6 cells tested, and vertical bars indicate±standard error.

[4] = target: human α4β4-nAChR (Homo sapiens, UniProt P30926+P43681); experiment: whole-cell current responses of α4β4-nAChR; format: cell-based
Description: (§1) FIG. 9 illustrates that IPT-mediated functional block persisted for α4β2- but not α4β4-nAChR after 3 min of drug washout.
(§2) FIG. 9C depicts the IPT concentration (abscissa; log μM scale) dependence of inhibition of function (ordinate; peak whole-cell current responses normalized to those in the absence of IPT; mean±SE, n=6 cells) of human α4β2-(▪), α4β4-(◯), or α7-(▴) nAChR when IPT is co-applied with agonists.

[5] = target: human α7-nAChR (Homo sapiens, UniProt P36544); experiment: whole-cell current responses of α7-nAChR to choline; format: cell-based
Description: as §1, §2
A double asterisk (**) represents p<0.01.

[6] = target: T2, native α4β2-nAChR (Rattus norvegicus, UniProt P09483+P12390); experiment: RJR-2403-induced currents in single dopamine neurons acutely dissociated from rat VTA; format: cell-based; details: VTA DA neurons; peak and steady-state currents
T2 construct: native expressed α4β2-nAChRs in single dopamine neurons acutely dissociated from rat VTA; from tissue; host or cells: dopamine neurons acutely dissociated from rat ventral tegmental area (VTA)
Source text: FIG. 10 illustrates how typical traces representing four VTA DA neurons responded to α4β2-nAChR selective agonist, RJR-2403 with (FIG. 10B) and without IPT (FIG. 10A). […] Finally, FIG. 10C summarizes the inhibition-efficacy relationship curves of IPT-induced inhibition in peak and steady-state currents.

[7] = 3 μM IPT co-applied with 3 μM nicotine, n=6
[8] = 50 μM IPT, 3 μM nicotine, holding potential 0 mV
[9] = 50 μM IPT, 3 μM nicotine, holding potential −40 mV
[10] = 50 μM IPT, 3 μM nicotine, holding potential −80 mV

Chain of α4β2-nAChR agonist binding sites (P43681 29-627 limits assumed): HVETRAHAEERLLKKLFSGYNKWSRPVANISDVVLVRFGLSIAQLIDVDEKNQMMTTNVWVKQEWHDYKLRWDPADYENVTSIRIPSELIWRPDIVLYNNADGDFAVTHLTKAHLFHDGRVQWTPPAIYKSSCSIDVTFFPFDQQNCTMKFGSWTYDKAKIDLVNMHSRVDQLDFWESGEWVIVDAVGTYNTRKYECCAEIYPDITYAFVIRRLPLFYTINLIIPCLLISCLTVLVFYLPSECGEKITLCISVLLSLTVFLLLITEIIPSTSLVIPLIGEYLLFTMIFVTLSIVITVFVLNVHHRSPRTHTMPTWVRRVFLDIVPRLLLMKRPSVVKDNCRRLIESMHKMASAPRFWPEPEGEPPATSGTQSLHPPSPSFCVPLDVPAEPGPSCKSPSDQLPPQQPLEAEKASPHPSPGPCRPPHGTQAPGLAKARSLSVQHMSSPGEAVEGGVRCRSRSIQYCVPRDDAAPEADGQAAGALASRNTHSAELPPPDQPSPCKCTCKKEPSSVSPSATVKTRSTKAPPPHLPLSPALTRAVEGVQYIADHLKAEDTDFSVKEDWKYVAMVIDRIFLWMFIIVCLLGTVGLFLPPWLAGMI
Chain of α4β2-nAChR agonist binding sites (P17787 26-502): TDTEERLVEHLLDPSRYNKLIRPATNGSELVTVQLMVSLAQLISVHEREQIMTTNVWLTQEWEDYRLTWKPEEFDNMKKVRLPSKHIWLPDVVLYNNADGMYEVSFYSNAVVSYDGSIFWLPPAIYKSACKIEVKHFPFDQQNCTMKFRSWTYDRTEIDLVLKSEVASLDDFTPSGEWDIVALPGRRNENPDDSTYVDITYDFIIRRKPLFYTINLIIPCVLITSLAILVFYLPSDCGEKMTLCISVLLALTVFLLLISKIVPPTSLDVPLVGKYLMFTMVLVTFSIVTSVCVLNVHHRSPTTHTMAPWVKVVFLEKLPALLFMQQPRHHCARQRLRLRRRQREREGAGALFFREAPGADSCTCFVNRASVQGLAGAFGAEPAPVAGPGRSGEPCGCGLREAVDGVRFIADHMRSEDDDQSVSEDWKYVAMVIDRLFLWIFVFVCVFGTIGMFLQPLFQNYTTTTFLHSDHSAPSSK
T1 sequence (P43681 29-627 limits assumed): as the sequence (P43681 29-627 limits assumed) above
T1 sequence (P17787 26-502): as the sequence (P17787 26-502) above
Chain of human α4β4-nAChR (P43681 29-627 limits assumed): as the sequence (P43681 29-627 limits assumed) above
Chain of human α4β4-nAChR (P30926 22-498): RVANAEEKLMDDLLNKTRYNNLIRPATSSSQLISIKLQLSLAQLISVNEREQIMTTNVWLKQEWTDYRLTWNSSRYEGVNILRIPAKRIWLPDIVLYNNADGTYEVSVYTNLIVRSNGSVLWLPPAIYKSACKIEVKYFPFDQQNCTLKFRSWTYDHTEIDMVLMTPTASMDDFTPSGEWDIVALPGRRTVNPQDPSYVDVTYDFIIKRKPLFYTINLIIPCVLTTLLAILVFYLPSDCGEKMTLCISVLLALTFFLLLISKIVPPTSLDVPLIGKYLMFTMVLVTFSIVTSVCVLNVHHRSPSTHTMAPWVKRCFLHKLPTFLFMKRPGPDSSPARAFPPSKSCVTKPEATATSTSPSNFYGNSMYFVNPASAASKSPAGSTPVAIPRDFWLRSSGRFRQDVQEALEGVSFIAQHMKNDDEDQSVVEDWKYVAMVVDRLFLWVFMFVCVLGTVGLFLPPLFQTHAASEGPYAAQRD
Chain of human α7-nAChR (P36544 23-502): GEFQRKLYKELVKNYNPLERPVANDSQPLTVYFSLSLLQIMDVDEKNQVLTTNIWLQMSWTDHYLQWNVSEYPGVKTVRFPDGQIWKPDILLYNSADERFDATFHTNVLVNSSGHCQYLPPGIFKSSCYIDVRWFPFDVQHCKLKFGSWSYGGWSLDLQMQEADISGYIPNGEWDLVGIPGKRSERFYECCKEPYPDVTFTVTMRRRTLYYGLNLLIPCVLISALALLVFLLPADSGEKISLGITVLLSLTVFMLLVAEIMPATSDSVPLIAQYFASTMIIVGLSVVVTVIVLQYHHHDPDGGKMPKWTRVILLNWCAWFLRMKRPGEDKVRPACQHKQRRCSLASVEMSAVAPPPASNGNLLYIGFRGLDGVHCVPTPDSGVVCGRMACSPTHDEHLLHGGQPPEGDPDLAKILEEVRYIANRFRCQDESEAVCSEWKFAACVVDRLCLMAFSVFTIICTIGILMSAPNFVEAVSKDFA
T2 sequence (P09483 31-630): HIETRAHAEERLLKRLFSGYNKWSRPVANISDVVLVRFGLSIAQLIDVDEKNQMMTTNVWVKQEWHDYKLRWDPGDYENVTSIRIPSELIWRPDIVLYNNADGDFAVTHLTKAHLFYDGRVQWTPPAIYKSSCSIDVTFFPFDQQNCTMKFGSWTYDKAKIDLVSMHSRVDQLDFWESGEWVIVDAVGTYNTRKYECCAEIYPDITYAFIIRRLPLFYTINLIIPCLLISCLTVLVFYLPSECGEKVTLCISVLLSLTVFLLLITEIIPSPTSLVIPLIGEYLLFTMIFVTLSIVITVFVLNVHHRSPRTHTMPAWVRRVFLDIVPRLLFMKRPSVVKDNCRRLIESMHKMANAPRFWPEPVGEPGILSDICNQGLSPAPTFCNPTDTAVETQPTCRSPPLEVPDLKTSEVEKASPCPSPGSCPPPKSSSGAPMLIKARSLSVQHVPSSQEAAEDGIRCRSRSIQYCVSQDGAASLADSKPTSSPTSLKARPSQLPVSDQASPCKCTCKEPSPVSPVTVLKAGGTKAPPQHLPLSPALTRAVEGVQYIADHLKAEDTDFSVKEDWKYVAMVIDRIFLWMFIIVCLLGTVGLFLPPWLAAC
T2 sequence (P12390 25-500): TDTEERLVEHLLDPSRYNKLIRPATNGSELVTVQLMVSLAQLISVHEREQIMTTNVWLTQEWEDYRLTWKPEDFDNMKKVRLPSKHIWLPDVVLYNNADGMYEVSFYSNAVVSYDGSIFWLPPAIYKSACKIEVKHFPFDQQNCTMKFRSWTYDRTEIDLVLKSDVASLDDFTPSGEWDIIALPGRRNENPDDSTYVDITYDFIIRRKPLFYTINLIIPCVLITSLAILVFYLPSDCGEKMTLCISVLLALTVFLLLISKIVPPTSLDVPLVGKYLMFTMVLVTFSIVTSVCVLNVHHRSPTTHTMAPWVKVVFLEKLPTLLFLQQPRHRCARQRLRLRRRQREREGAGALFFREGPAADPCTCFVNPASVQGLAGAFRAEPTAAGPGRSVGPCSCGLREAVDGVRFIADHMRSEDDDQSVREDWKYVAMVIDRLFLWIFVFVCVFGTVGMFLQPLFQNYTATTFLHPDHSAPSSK

Compound: CNC1(C)C2CCC(C2)C1(C)C (stereo not drawn) [mecamylamine]
- block of 3H-epibatidine binding ([1]; concentrations up to 1 mM): failed to block radioligand binding

Compound: CN1CCCC1c1cccnc1 (stereo not drawn) [nicotine, reference compound]
- block of 3H-epibatidine binding ([1]; with previously reported IC50 values): blocked
- increase in dopamine levels versus final sample prior to nicotine administration ([2]; subcutaneous nicotine 0.5 mg/kg, control group): 100%

Compound: CC(C)NC(C)(C)C(C)C.Cl [IPT, iptakalim hydrochloride]
- reduction of peak whole-cell current (Ip) ([3]; 3 μM IPT co-applied with 3 μM nicotine, VH −60 mV, n=6): 20.85±2.69%
- acceleration of rate of decay from peak to steady-state current [3, 7]: 21.38±3.40%
- reduction of ratio of steady-state to peak current (Is/Ip) [3, 7]: 68.62±2.23%
- reduction of peak current amplitude after initial co-application of nicotine with IPT ([3]; 3 μM nicotine, nicotine at start and end only (second value)): 13.6±2.4%
- reduction of peak current amplitude after initial co-application of nicotine with IPT ([3]; 3 μM nicotine, repetitive nicotine challenge protocol (first value)): 16.8±6.1%
- peak amplitude of 3 μM nicotine-induced current, % of control ([3]; 3 min pre-treatment ending before exposure to nicotine alone): 81±7 % of control
- peak amplitude of 3 μM nicotine-induced current, % of control ([3]; 3 min pre-treatment followed by continued co-application): 62±4 % of control
- response to nicotine challenge after 15 min of IPT exposure, % of control ([3]; after repeated nicotine challenges (4 sec at 3 min intervals)): 11.9±1.7 % of control
- peak amplitude of 3 μM nicotine-induced current, % of control ([3]; co-application with nicotine without pre-treatment): 79±9 % of control
- response to nicotine challenge after 15 min of IPT exposure, % of control ([3]; without repeated nicotine challenges): 29.8±3.3 % of control
- inhibition of α4β2-nAChR-mediated currents ([3]; 10 μM IPT, 3 min pre-treatment then co-application, 3 μM nicotine): 70±11%
- current decay constant, % of control [3, 8]: 44±7.6 % of control
- fractional inhibition of whole-cell peak current responses to nicotine [3, 8]: 68.9±3.5%
- current decay constant, % of control [3, 9]: 30±1.1 % of control
- fractional inhibition of whole-cell peak current responses to nicotine [3, 9]: 76.4±2.6%
- current decay constant, % of control [3, 10]: 22±3.4 % of control
- fractional inhibition of whole-cell peak current responses to nicotine [3, 10]: 80.9±2.65%
- persistence of functional block after 3 min of drug washout ([3]; 50 μM IPT, 3 μM nicotine): persisted
- block of peak whole-cell currents ([3]; 50 μM IPT, agonist ACh 10 μM): 65.81±1.49%
- block of peak whole-cell currents ([3]; 50 μM IPT, agonist RJR-2403 3 μM): 72.72±1.98%
- block of responses to cytisine ([3]; 50 μM IPT, agonist cytisine 100 μM (maximally efficacious, partial agonist)): 49.32±3.46%
- block of peak whole-cell currents ([3]; 50 μM IPT, agonist nicotine 3 μM): 76.37±2.56%
- IC50 ([3]; co-application condition, 3 μM nicotine, n=6, read-out: IC50 for inhibition of whole-cell steady-state current): 1 µM
- IC50 ([3]; co-application with agonist, without pretreatment, 3 μM nicotine, read-out: IC50 for inhibition of peak whole-cell responses): 31 µM
- half-time for recovery of peak current response to nicotine challenge ([3]; washout after 4 sec exposure to 50 μM IPT, 3 μM nicotine): ~15 min
- IC50 ([3]; with 3 min pretreatment with IPT, 3 μM nicotine, read-out: IC50 for inhibition of peak whole-cell responses): 5 µM
- persistence of functional block after 3 min of drug washout ([4]; 50 μM IPT, 1 μM nicotine): not
- IC50 ([4]; co-application with agonist (1 μM nicotine), peak current, read-out: IC50 for functional inhibition): 23 µM
- inhibition of α7-nAChR-mediated currents ([5]; 10 μM IPT, 3 min pre-treatment then co-application, 1 mM choline): 3.5±0.4%
- IC50 ([5]; co-application with agonist (choline), peak current, read-out: IC50 for α7-nAChR blockade): > 1000 µM
- block of 3H-epibatidine binding ([1]; concentrations up to 1 mM): failed to block radioligand binding
- effect on RJR-2403-induced current response [6]: inhibited RJR-2403-induced current response in a concentration-dependent manner
- effect on nicotine-induced elevation of dopamine in the nucleus accumbens ([2]; local perfusion with IPT 1-100 μM from microdialysis probe after s.c. nicotine 0.5 mg/kg, significant 20-80 minutes after nicotine): tended to decrease nicotine-induced elevation of dopamine
